Some test systems named below: HT29 colon; SN12C renal; DLD-1 colon; DMS 114 small cell lung; DMS 273 small cell lung; HOP-18 NSCLC; KM20L2 colon; M19-MEL melanoma; P388 leukemia; P388/ADR leukemia; SN12K1 renal; SNB-78 CNS; XF 498 CNS; LXFL 529 NSCLC.
Holding throughout (experiment): NCI tumour cell line growth inhibition, 48 h

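Interpolation was linear, between the two tested concentrations surrounding the appropriate level; five concentrations were tested over 48 hours in 96-well plates. TGI marks complete inhibition of growth.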 Where only a bound is given, the exact number is not on record here.

Here are results for 29 molecules from PubChem BioAssay (NCI).

Turning to `CCOC(=O)/C(C#N)=C/c1ccc2c(-c3c(OCC)ccc4cc(/C=C(\C#N)C(=O)OCC)ccc34)c(OCC)ccc2c1`, the TGI with HT29 colon and in the test on SN12C renal was over 100 µM each time.

As for `CC(=O)OCC1OC(On2ccccc2=S)C(OC(C)=O)C(OC(C)=O)C1OC(C)=O` (configuration not stated), the TGI with HT29 colon and in the test with SN12C renal was over 100 µM in each case.

On to `Cc1ccc(S(=O)ON2CCC(C(=O)O)(c3ccccc3)CC2)cc1` (configuration not stated), for which the TGI with HT29 colon and with SN12C renal was over 100 µM in each case.

With `C=C1C(=O)O[C@@H]2[C@H]3O[C@]3(C)CCC=C(C)CC[C@@H]12`, the TGI was 28.4 µM with DLD-1 colon; 165 µM with DMS 114 small cell lung; over 60.3 µM in the test with DMS 273 small cell lung; 28.3 µM in the test with HOP-18 NSCLC; 68.8 µM in the test on HT29 colon; 62.2 µM in the test with KM20L2 colon. The TGI came to 33.7 µM with M19-MEL melanoma; 175 µM in the test on P388 leukemia; 27.9 µM with P388/ADR leukemia; 50.2 µM in the test on SN12C renal; 37.9 µM in the test on SN12K1 renal; 62 µM in the test on SNB-78 CNS. Further, the TGI in the test on XF 498 CNS was determined as 32.4 µM.

For the molecule `Cc1ccc(Nc2nc(=S)[nH]c3[nH]ncc23)cc1`, the TGI in the test with HT29 colon and in the test with SN12C renal was over 100 µM each time.

As to `COc1cc(NS(C)(=O)=O)ccc1NCc1cnc2ccc3[nH]c(C)ccc3c12`, the TGI in the test with HT29 colon and in the test on SN12C renal was over 100 µM in each case.

Take `COc1ccc(/C=C2\C=Cc3ccccc32)cc1OC`: the TGI in the test on HT29 colon and in the test on SN12C renal was over 100 µM in each case.

For the molecule `O=C(c1ccccc1)c1ccc(C(c2c(O)c3ccccc3oc2=O)c2c(O)c3ccccc3oc2=O)cc1`, the TGI in the test on HT29 colon was over 63.5 µM; in the test with SN12C renal it was over 77.2 µM.

Turning to `CC/C(=N\NC(=O)c1cccnc1)c1ccc2c(c1)OCCO2`, the TGI with HT29 colon and in the test with SN12C renal was over 100 µM throughout.

As for `CSC1=N/C(=C\c2ccc(C)cc2)C(=O)N1CN1CCOCC1`, the TGI in the test on SN12C renal was over 100 µM.

On to `Clc1ccc(N=C/C=C/Nc2ccc(Cl)cn2)nc1`, for which the results for the TGI in the test on HT29 colon and with SN12C renal were 22.1 µM and 28.6 µM, respectively.

As to `C=C[C@@H]1OC(=O)O[C@H]1CO`, the TGI with HT29 colon and with SN12C renal was over 100 µM throughout.

As for `OC1(c2ccccc2)CC2CCC(C1)N2CCc1ccccc1` (configuration not stated), the TGI in the test with HT29 colon was 79.3 µM; with SN12C renal it was over 100 µM.

`CCOC(=O)C1C(=O)CC(O)(OCC)C(C(=O)OCC)C1c1ccc(OC)cc1` (configuration not stated): the TGI in the test with HT29 colon and with SN12C renal was over 100 µM throughout.

The molecule `S=c1[nH]nc(COc2ccc3c(c2)CCCC3)n1/N=C/c1ccc(Cl)cc1` displayed a TGI with SN12C renal of 37.9 µM.

With `CCCCCC(CN1CCOCC1)C(=O)/C=C/c1ccccc1` (configuration not stated), the TGI in the test on DMS 114 small cell lung was 5.17 µM; in the test with DMS 273 small cell lung it was 6.1 µM; with HT29 colon, 10.3 µM; in the test on KM20L2 colon, 10.9 µM; with M19-MEL melanoma, 7.05 µM; with SN12C renal it was 10.5 µM. In addition, the TGI with XF 498 CNS came to 3.29 µM.

As for `COc1ccc2[nH]c(CCNC(=O)c3cc([N+](=O)[O-])cc([N+](=O)[O-])c3)cc2c1`, the TGI in the test with HT29 colon and in the test with SN12C renal was over 100 µM throughout.

`COC(CN(C)C(=O)C(C)NC(=O)c1ccccc1)OC` (configuration not stated): the TGI with HT29 colon and with SN12C renal was over 100 µM in each case.

`CC(C)=CCC[C@]1(C)CC[C@]2(C)C3CCC(=C(C)C)[C@@H](CCCO)[C@]3(C)CC[C@@]2(C)C1` (some centres not stated): the TGI in the test with HT29 colon and in the test on SN12C renal was over 100 µM in each case.

On to `CN(C)c1ccc(-c2cc(=O)c3ccccc3[nH]2)cc1`, for which the TGI in the test on DLD-1 colon, with DMS 114 small cell lung, in the test with DMS 273 small cell lung, in the test on HT29 colon, in the test with KM20L2 colon and in the test on LXFL 529 NSCLC was over 100 µM each time. Further, the TGI in the test with M19-MEL melanoma, in the test on SN12C renal and with SNB-78 CNS was over 100 µM throughout.

Regarding `COc1ccc(OC)c(C2CCc3nc4nc(N)nc(N)c4cc3C2)c1` (configuration not stated), the TGI turned out to be 10.8 µM in the test on HT29 colon and 3.33 µM with SN12C renal.

In the case of `O=C1C=CC(=O)c2c1ccc1c3ccccc3n(-c3ccccn3)c21`, the TGI in the test with DLD-1 colon is 30.6 µM; in the test on DMS 114 small cell lung, 40.2 µM; in the test with DMS 273 small cell lung, over 100 µM; with HOP-18 NSCLC, 29.1 µM; with HT29 colon it was 77.1 µM; in the test with LXFL 529 NSCLC, 28.5 µM. In addition, the TGI in the test with M19-MEL melanoma was 41.6 µM; with SN12C renal, over 100 µM; in the test on SNB-78 CNS, over 100 µM; in the test on XF 498 CNS it was 29.3 µM.

With `C/C(=N/NC(=S)Nc1ccccc1Cl)c1ccccn1`, the TGI in the test with HT29 colon is 24.7 µM; in the test with SN12C renal, 8.4 µM.

For `CCN(CC)C(=S)SS(=O)(=O)c1ccccc1C(=O)O`, the TGI in the test on HT29 colon and with SN12C renal was over 100 µM each time.

For `C=C(O)c1ccccc1C#Cc1ccccc1C(=O)OC`, the TGI in the test with HT29 colon and with SN12C renal was over 10 µM in each case.

`c1ccc2c(c1)ccc1nc(-c3ccc4c(c3)OCO4)c3c(c12)CCCC3`: the TGI was over 100 µM in the test with HT29 colon and 98.6 µM with SN12C renal.

Turning to `O=c1[nH]c2ccc(C(F)(F)F)cc2nc1-c1ccccc1`, the TGI in the test on HT29 colon and in the test on SN12C renal was over 100 µM in each case.

Take `Clc1ccc(-c2nn3c(CCCCCCCCc4nnc5sc(-c6ccc(Cl)cc6)nn45)nnc3s2)cc1`: the TGI was 30.6 µM in the test on HT29 colon and over 63.1 µM with SN12C renal.

`CN1C2CCC1CC(OC(c1ccccc1)c1ccccc1)C2` (configuration not stated): the TGI is 23 µM in the test with HT29 colon and over 100 µM in the test on SN12C renal.
